Assay results as given in patent publication US6287840A (Axys Pharmaceuticals, Inc., priority 1999, dated 2001).
Read-outs that look alike come from different tables or passages of the source.

Legend:
[1] = tested on: human malarial parasite Plasmodium falciparum; experiment: In vitro protease activity of malarial parasite, substrate Z-Phe-Arg-AMC; format: biochemical; settings: read-out: P. falciparum IC50 (human)
From the text: (§1) The following table summarizes the comparative IC50 values for selected cysteine protease inhibitors against the human malarial parasite Plasmodium falciparum and the mouse malarial parasite Plasmodium vinckei. The substrate used to measure in vitro protease activity was Z-Phe-Arg-AMC.

[2] = tested on: mouse malarial parasite Plasmodium vinckei; experiment: as above; format: biochemical; settings: read-out: P. vinckei IC50 (murine)
From the text: as §1

[3] = biological target: T1, Cathepsin B from human placenta (Homo sapiens, UniProt P07858); experiment: Inhibition of cathepsin B, Z-Arg-Arg-AMC fluorescence progress curves; format: biochemical; settings: for Ki: corrected for substrate; for k/KI (kirr/KI): values without asterisk
T1 construct: Cathepsin B from human placenta, obtained from Sigma; purchased Sigma; host or cells: human placenta (tissue)
Procedure, shortened: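 Human placental enzyme (~10 nM) in 50 mM phosphate pH 6.2 with 2.5 mM DTT and 2.5 mM EDTA, 50 μM Z-Arg-Arg-AMC, inhibitors 30-0.001 μM, 25° C. AMC fluorescence (ex 380/em 460 nm) progress curves fitted for kobs; kobs/[I] reported, with kirr, KI and kirr/KI substrate-corrected for selected compounds.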

[4] = biological target: T2, Cathepsin L from rat liver (Rattus norvegicus, UniProt P07154); experiment: Inhibition of cathepsin L, Z-Phe-Arg-AMC fluorescence progress curves; format: biochemical; settings: for Ki: corrected for substrate; for k/KI (kirr/KI): values without asterisk; for k/KI (kirr/KI) / kobs /[I]* (approximate second-order inactivation constant): 25° C., pH 6.2; for kobs /[I]* (approximate second-order inactivation constant): values marked *
T2 construct: Cathepsin L from rat liver; from tissue; host or cells: rat liver
T2 sequence (P07154 114-288 limits assumed): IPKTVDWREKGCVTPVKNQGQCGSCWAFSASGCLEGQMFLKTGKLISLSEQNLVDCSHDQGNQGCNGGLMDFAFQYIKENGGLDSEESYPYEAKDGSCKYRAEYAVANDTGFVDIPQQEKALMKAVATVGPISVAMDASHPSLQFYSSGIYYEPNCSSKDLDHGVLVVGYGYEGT
T2 sequence (P07154 291-334 limits assumed): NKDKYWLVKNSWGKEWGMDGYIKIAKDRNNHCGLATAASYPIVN
Procedure, shortened: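 Progress curves of AMC release (380/460 nm) over at least 3 inactivation half-times were fitted to kobs, reported as kobs/[I] or, via 1/[I] vs 1/kobs, kirr, KI (substrate-corrected) and kirr/KI.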

Cloned cathepsin S = biological target: T3, Cloned cathepsin S (Homo sapiens, UniProt P25774); experiment: Inhibition of cathepsin S, Z-Val-Val-Arg-AMC fluorescence progress curves; format: biochemical; settings: for Ki: corrected for substrate; for k/KI (kirr/KI): values without asterisk; for k/KI (kirr/KI) / kobs /[I]* (approximate second-order inactivation constant): 25° C., pH 6.5; for kobs /[I]* (approximate second-order inactivation constant): values marked *
T3 construct: made in house
T3 sequence (P25774 115-331): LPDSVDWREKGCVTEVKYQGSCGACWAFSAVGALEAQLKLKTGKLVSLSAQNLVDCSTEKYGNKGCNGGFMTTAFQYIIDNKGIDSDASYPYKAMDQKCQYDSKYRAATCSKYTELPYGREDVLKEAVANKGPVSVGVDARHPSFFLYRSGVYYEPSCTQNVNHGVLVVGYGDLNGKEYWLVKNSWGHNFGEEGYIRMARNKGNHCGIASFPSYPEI
Procedure, shortened: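 Fluorescence (380 nm excitation, 460 nm emission) was followed after adding sub-nM enzyme to pH 6.5 phosphate buffer with DTT, EDTA, Triton, 10 μM Z-VVR-AMC and 30-0.001 μM inhibitor at 25 °C. Fitted kobs values gave apparent kobs/[I]; for some, double-reciprocal plots gave kirr, KI and kirr/KI, KI corrected by 1+[S]/Km.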

cruzain, from T. cruzi = cruzain, from T. cruzi (Trypanosoma cruzi, UniProt P25779); experiment: Inhibition of cruzain, as for cathepsin L; format: biochemical; settings: for k/KI (kirr/KI): values without asterisk; for kobs /[I]* (approximate second-order inactivation constant): values marked *
Sequence of cruzain, from T. cruzi (P25779 123-337 limits assumed): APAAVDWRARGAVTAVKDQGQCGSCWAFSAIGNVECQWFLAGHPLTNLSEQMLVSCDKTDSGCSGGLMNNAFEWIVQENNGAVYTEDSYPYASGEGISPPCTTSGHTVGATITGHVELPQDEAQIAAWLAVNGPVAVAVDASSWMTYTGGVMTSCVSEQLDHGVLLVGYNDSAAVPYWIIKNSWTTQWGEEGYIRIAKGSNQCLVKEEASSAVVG
Procedure, shortened: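 Run as for cathepsin L with 1 nM cruzain in 50 mM phosphate pH […], 2.5 mM DTT, 2.5 mM EDTA, 5 μM Z-Phe-Arg-AMC, at 25 °C, inhibitors 30-0.001 μM; fluorescence (ex 380/em 460 nm) followed continuously. kobs fitted from progress curves and kobs/[I] reported; selected compounds gave kirr, KI, kirr/KI, with KI corrected by (1+[S]/Km).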

[5] = tested on: Leishmania donovani amastigote infected mouse peritoneal macrophages; experiment: In vitro antiprotozoal activity, Leishmania donovani; format: cell-based; parameters: key to percentage inhibition, L. donovani: the term "T" indicates the molecule to have displayed cytotoxicity
Procedure: (§2) In this table, the in vitro antiprotozoal activities of the indicated compounds were measured as percentage inhibition of Leishmania donovani amastigote infecteda mouse peritoneal macrophages, Trypanosoma cruzi amastigote infected macrophages, and Trypanosoma brucei extracellular bloodstream forms.

[6] = tested on: Trypanosoma cruzi amastigote infected macrophages; experiment: In vitro antiprotozoal activity, Trypanosoma cruzi; format: cell-based
Procedure: as §2

[7] = tested on: Trypanosoma brucei extracellular bloodstream forms; experiment: In vitro antiprotozoal activity, Trypanosoma brucei; format: cell-based
Procedure: as §2

calpain = experiment: Inhibition (inactivation) of calpain, Suc-Leu-Tyr-AMC; format: biochemical; settings: pH 7.5, 5 mM CaCl2, 25° C.; for kobs /[I]*: values marked * (or %); for k/KI (kirr/KI): values without asterisk
Procedure: The inhibitors were tested against calpain at 1 or 2% as for the other enzymes. The reaction conditions were 50 mM Tris, pH 7.5, 5 mM CaCl2, 2.5 mM DTT, assayed at 25° C. The substrate was 100 μM Suc-Leu-Tyr-AMC.

T. cruzi = T. cruzi infected irradiated J774 cells; format: cell-based; parameters: dose or concentration left out as unconfirmed; settings: thereafter without inhibitor; compounds listed in decreasing order of effectiveness
Procedure: Irradiated J774 cells were infected with T. cruzi and simultaneously treated with […] of peptidyl vinyl derivatives for 5 days; thereafter without inhibitor. The following compounds were effective in decreasing order: Mu-Phe-ArgVSPh, Boc-Tyr(I2)-HphVSPh, Mu-Phe-VaIVSPh, Boc-Tic-HphVSPh, Mu-Phe-Ser(OBzl)VSPh, Mu-Leu-HphVSPh, Mu-Tyr(I2)-HphVSPh, Mu-Phe-LysVSPh, Mu-Tic-HphVSPh.

Row | Compound | IC50 ([1]; cells printed in nM) [nM] | IC50 ([2]; cells printed in nM) [nM] | kirr [3] [s⁻¹] | Ki [3] [nM] | k/KI (kirr/KI) ([3]; 25° C., pH 6.2) | kirr [4] [s⁻¹] | Ki [4] [nM] | k/KI (kirr/KI) [4] | k/KI (kirr/KI) (Cloned cathepsin S) | k/KI (kirr/KI) (cruzain, from T. cruzi) | percentage inhibition, L. donovani ([5]; 3 uM) [%] | percentage inhibition, L. donovani ([5]; 10 uM) [%] | percentage inhibition, L. donovani ([5]; 30 uM) [%] | percentage inhibition, L. donovani ([5]; 90 uM) | percentage inhibition, T. cruzi ([6]; 3 uM) [%] | percentage inhibition, T. cruzi ([6]; 10 uM) [%] | percentage inhibition, T. cruzi ([6]; 30 uM) [%] | percentage inhibition, T. cruzi ([6]; 90 uM) [%] | kobs /[I]* (approximate second-order inactivation constant) (cruzain, from T. cruzi) | effectiveness against T. cruzi in J774 cells (T. cruzi) | further results
1 | COC(=O)C1CCCN1C(=O)C(CC(C)C)NC(=O)/C=C/[C@H](CCc1ccccc1)NC(=O)[C@H](Cc1ccccc1)NC(=O)N1CCOCC1 (stereo partly drawn) [Mu-Phe-HphVAMLeu-ProOMe, (S)-(E)-(N-leucylprolinemethylester)-4-(4-morpholinecarbonylphenyl-alanyl)amino-6-phenyl-2-hexenamide] | 80 | 600 | – | – | – | – | – | – | – | – | – | – | – | – | – | – | – | – | – | – | –
2 | O=C(NCCCC[C@@H](/C=C/S(=O)(=O)c1ccccc1)NC(=O)[C@H](Cc1ccccc1)NC(=O)N1CCOCC1)OCc1ccccc1 [Mu-Phe-Lys(Z)VSPh, (S)-(E)-7-(benzyloxycarbonyl)amino-3-(4-morpholinecarbonylphenylalanyl)-amino-1-phenylsulfonyl-1-heptene] | 100 | 80 | 0.18 | 4700 | 39,200 M^-1 sec^-1 | 0.45 | 3800 | 120,000 M^-1 sec^-1 | 2,600,000 M^-1 sec^-1 | 44,500 M^-1 sec^-1 | 0 | 0 | 0 | 0% | 0 | 0 | 0 | 0 | – | – | kirr (Cloned cathepsin S): 0.14 s⁻¹; Ki (Cloned cathepsin S): 54 nM; ED50, T. brucei [7]: 3640 nM; percentage inhibition, T. brucei ([7]; 1 uM): 19.8%; percentage inhibition, T. brucei ([7]; 3 uM): 29.9%; percentage inhibition, T. brucei ([7]; 10 uM): 81.3%; percentage inhibition, T. brucei ([7]; 30 uM): 100%; percentage inhibition, T. brucei ([7]; 90 uM): 100%
3 | (S)-(E)-3-(4-morpholinecarbonylphenylalanyl)amino-4-methyl-1-phenylsulfonyl-1-pentene [Mu-Phe-ValVSPh] | – | – | – | – | – | 0.19 | 2600 | 74,000 M^-1 sec^-1 | 290,000 M^-1 sec^-1 | – | 100 | 100 | 100 | T | 5.5 | 6.2 | 18.9 | 74.2 | 28,000 M^-1 sec^-1 | effective | kirr (Cloned cathepsin S): 0.039 s⁻¹; Ki (Cloned cathepsin S): 130 nM; kobs /[I]* (calpain): 180 M⁻¹ s⁻¹; ED50, T. cruzi [6]: 61880 nM; ED50, T. brucei [7]: 13850 nM; percentage inhibition, T. brucei ([7]; 1 uM): 11.9%; percentage inhibition, T. brucei ([7]; 3 uM): 13.5%; percentage inhibition, T. brucei ([7]; 10 uM): 35.4%; percentage inhibition, T. brucei ([7]; 30 uM): 72.7%; percentage inhibition, T. brucei ([7]; 90 uM): 100%; IC50 ([1]; cells printed in μM): 1000 nM; IC50 ([2]; cells printed in μM): 1000 nM
4 | (S)-(E)-3-[4-tert-butoxycarbonyl-(3,5-diiodotyrosyl)]-amino-5-phenyl-1-phenylsulfonyl-1-pentene [Boc-Tyr(I2)-HphVSPh] | – | – | – | – | – | – | – | – | – | – | – | – | – | – | – | – | – | – | 280,000 M^-1 sec^-1 | effective | kobs /[I]* (approximate second-order inactivation constant) ([3]; values marked *, 25° C., pH 6.2): 1400 M⁻¹ s⁻¹; kobs /[I]* (approximate second-order inactivation constant) [4]: 105,000 M^-1 sec^-1; kobs /[I]* (approximate second-order inactivation constant) (Cloned cathepsin S): 210,000 M^-1 sec^-1; k/KI (kirr/KI) (calpain): 0 M⁻¹ s⁻¹
5 | (S)-(E)-4-(4-morpholinecarbonylphenylalanyl)amino-6- phenyl-2-hexenoic acid [Mu-Phe-HphVA] | – | – | 0.038 | 85000 | 450 M⁻¹ s⁻¹ | – | – | – | – | – | – | – | – | – | – | – | – | – | – | – | IC50 ([1]; cells printed in μM): 1000 nM; IC50 ([2]; cells printed in μM): 2000 nM
6 | (S)-(E)-Benzyl 4-(4-morpholinecarbonylphenylalanyl)amino-6-phenyl-2-hexenamide [Mu-Phe-HphVAMBzl] | 200 | – | – | – | < 100 M⁻¹ s⁻¹ | – | – | – | – | – | 0 | 0 | 14.2 | 23.3% | 0 | 0 | 0 | 5.83 | 70,200 M^-1 sec^-1 | – | kobs /[I]* (approximate second-order inactivation constant) [4]: 2800 M⁻¹ s⁻¹; kobs /[I]* (approximate second-order inactivation constant) (Cloned cathepsin S): 10,800 M^-1 sec^-1; kobs /[I]* (calpain): < 50 M⁻¹ s⁻¹; percentage inhibition, T. brucei ([7]; 3 uM): 0%; percentage inhibition, T. brucei ([7]; 10 uM): 0%; percentage inhibition, T. brucei ([7]; 30 uM): 0%; percentage inhibition, T. brucei ([7]; 90 uM): 0%; IC50 ([2]; cells printed in μM): 2000 nM
7 | (S,S)-(E)-3-[4-morpholinecarbonyl-(1,2,3,4-tetrahydro-3-isoquinoline-carbonyl)]amino-5-phenyl-1-phenylsulfonyl-1-pentene [Mu-Tic-HphVSPh] | – | – | – | – | 0 M⁻¹ s⁻¹ | – | – | – | – | 0 M⁻¹ s⁻¹ | – | – | – | – | – | – | – | – | – | effective | kobs /[I]* (approximate second-order inactivation constant) [4]: 12,600 M^-1 sec^-1; kobs /[I]* (approximate second-order inactivation constant) (Cloned cathepsin S): 630,000 M^-1 sec^-1; k/KI (kirr/KI) (calpain): 0 M⁻¹ s⁻¹
8 | (S,S)-(E)-3-[tert-butoxycarbonyl-(1,2,3,4-tetrahydro-3-isoquinolinecarbonyl)]-amino-5-phenyl-1-phenylsulfonyl-1-pentene [Boc-Tic-HphVSPh] | – | – | – | – | – | – | – | 0 M⁻¹ s⁻¹ | 0 M⁻¹ s⁻¹ | 30,000 M^-1 sec^-1 | – | – | – | – | – | – | – | – | – | effective | k/KI (kirr/KI) (calpain): 0 M⁻¹ s⁻¹
9 | ethyl (S)-(E)-4-(4-morpholinecarbonylphenylalanyl)-amino-6-phenyl-2-hexenoate [Mu-Phe-HphVEOEt] | 300 | 300 | 0.19 | 19000 | 10,100 M^-1 sec^-1 | 0.10 | 2200 | 47,500 M^-1 sec^-1 | – | – | – | – | – | – | – | – | – | – | 80,400 M^-1 sec^-1 | – | –
